Results as given in US4891358A, “ANE derivatives with novel bridging” (Bio-Mega Inc., priority 1987, dated 1990).
Numbered stars: 1 amine (or outer) side, 2 acyl side, 3 side chain; on linkers, the order of the positions; unused ones are H or OH. Bridge positions count the residues as written; N and C are the ends. Square brackets hold non-standard residues; d marks the D form. Peptide text beside a SMILES is read from it. Pen = CC(C)(S)[C@H](N)C(=O)O; X1 = O=C(CCC[*:2])[*:1]

Tested on: conscious normotensive rat
Test: Diuretic assay in the conscious normotensive rat
Type: in vivo
Conditions: for URINE VOLUME: 0.5 μg/kg/min infusion via femoral vein, ratio of treated over control, volume in 10 minute sample (average of three consecutive samples); for ELECTROLYTE EXCRETION K^+ / ELECTROLYTE EXCRETION Na^+: 0.5 μg/kg/min infusion, treated minus controls, average of three samples
From the text: More explicitly, normotensive male rats (300-325 g) were anesthetized with halothane. Following an application of lidocaine 2% solution, the femoral artery was cannulated for measurements of blood pressure and heart rate, and the femoral vein was cannulated for the administration of the test compounds. The bladder was also cannulated to measure urine flow. After surgery was completed, the animals were placed in restraining cages and allowed to recover from anesthesia for a period of one hour. A Ringer's solution infusion was started at a rate of 1.2 ml per hour. Three control urine samples were collected at 10 minute intervals. The test compound was then infused at a rate varying from 0.5 to 3 μg/kg/min over 30 minutes. Three test samples of urine were collected at 10 minute intervals during the compound infusion. After the test compound had been infused for 30 minutes and 3 more urine samples were collected. The volume of each urine sample was determined and the electrolyte concentration was measured using a biomedical electrolyte analyser. The animals served as their own controls. The systolic and diastolic blood pressures and the heart rate were determined during each urine collection period.

| Molecule | URINE VOLUME | ELECTROLYTE EXCRETION K^+ | ELECTROLYTE EXCRETION Na^+ |
| --- | --- | --- | --- |
| CC[C@H](C)[C@@H]1NC(=O)[C@H](CCCNC(=N)N)NC(=O)[C@H](CC(=O)O)NC(=O)[C@H]([C@@H](C)CC)NC(=O)[C@H](CCCNC(=N)N)NC(=O)CNC(=O)CNC(=O)[C@H](Cc2ccccc2)NC(=O)CCCSC(C)(C)[C@@H](C(=O)N[C@@H](CC(N)=O)C(=O)N[C@@H](CO)C(=O)N[C@@H](Cc2ccccc2)C(=O)N[C@@H](CCCNC(=N)N)C(=O)N[C@@H](Cc2ccc(O)cc2)C(=O)O)NC(=O)CNC(=O)[C@H](CC(C)C)NC(=O)CNC(=O)[C@H](CO)NC(=O)[C@H](CCC(N)=O)NC(=O)[C@H](C)NC(=O)CNC1=O [rat[(CH2 CH2 CH2 CO)^105, Pen^121]-ANF(105-126)] (FGGRIDRIGAQSGLG[Pen]NSFRY-OH; linker N-16 via X1) | 3.0 | 24.8 | 17.9 |
| rat [(CH2 -CH2 CH2 CO)^105]ANF-(105-126) [rat[(CH2 CH2 CH2 CO)^105]-ANF(105-126)] | 2.8 | 10.2 | 34.0 |
